According to PubChem BioAssay (NCI):
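Cultured in 96-well plates, cells were exposed to test compound for 48 hours across five concentrations. TGI: concentration producing complete growth inhibition.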

What was measured:
Assay in all cases: inhibition of tumour cell growth, NCI panel, 48 h
[1] = tested on: A498 renal
[2] = tested on: OVCAR-4 ovarian
[3] = tested on: HOP-62 NSCLC
[4] = tested on: UACC-62 melanoma
[5] = tested on: HOP-92 NSCLC
[6] = tested on: MDA-N
[7] = tested on: NCI/ADR-RES ovarian
[8] = tested on: CCRF-CEM leukemia
[9] = tested on: RXF 393 renal
[10] = tested on: U251 CNS
[11] = tested on: HCT-15 colon
[12] = tested on: NCI-H460 lung
[13] = tested on: EKVX NSCLC

| SMILES | TGI [1] [µM] | TGI [2] [µM] | TGI [3] [µM] | TGI [4] [µM] | TGI [5] [µM] | TGI [6] [µM] | TGI [7] [µM] | TGI [8] [µM] | TGI [9] [µM] | TGI [10] [µM] | TGI [11] [µM] | TGI [12] [µM] | TGI [13] [µM] |
| --- | --- | --- | --- | --- | --- | --- | --- | --- | --- | --- | --- | --- | --- |
| Nc1nc(Nc2ccc(Cl)cc2)sc1C(=O)c1cc2ccccc2oc1=O | 93.7 | > 100 | 42.7 | > 100 | > 100 | > 100 | > 100 | > 100 | > 100 | > 100 | > 100 | > 100 |  |
| COc1cccc(/C=N/n2c(-c3ccccc3)n[nH]c2=O)c1 | > 100 | > 100 | 63.5 | > 100 |  | > 100 | > 100 | > 100 |  | > 100 | > 100 | > 100 | > 100 |
| Nc1nc(Cl)cc(Nc2ccc3c(c2)CCC3)n1 | > 100 | > 100 |  | > 100 | > 100 | > 100 | > 100 | > 100 |  | > 100 | > 100 | > 100 | > 100 |
| O=C(c1nsc(Cl)c1Cl)N1CCCCC1 |  | > 100 | > 100 | > 100 |  | > 100 | > 100 | > 100 | > 100 | > 100 | > 100 |  | > 100 |
| C=CCSc1nn(CC=C)cc2ncnc1-2 | > 100 |  | > 100 | > 100 |  | > 100 | > 100 | > 100 | > 100 | > 100 | > 100 | > 100 | > 100 |
| O=S(=O)(Nc1ccccc1S(=O)(=O)c1ccccc1)c1ccccc1 | > 100 | > 100 | > 100 | > 100 | > 100 | > 100 | > 100 | > 100 | > 100 | > 100 | > 100 |  | 97 |
| OCCOCCO[P+]1(OCCOCCO)n2c3ccc2C(c2ccccc2)=C2C=CC(=N2)C(c2ccccc2)=c2ccc(n21)=C(c1ccccc1)C1=NC(=C3c2ccccc2)C=C1 | > 100 | 1.05 |  | 0.633 | > 100 | 0.121 | > 67.5 | 1.14 |  | > 100 | 3.21 | 0.886 |  |
| COC(=O)c1ccccc1CC1Cc2cc3c(cc2C1)CCC3 | > 100 | > 100 | > 100 |  | 71.2 | > 100 | > 100 | 39.1 | 63.6 | > 100 | > 100 | > 100 | > 100 |
| Cc1sc(N=Nc2c(O)[nH]c3ccccc23)nc1-c1ccccc1 | 32.3 | 42.3 | 33.1 | 34.3 | 45.2 | 76.4 | 44.7 |  | 34.9 | 34.3 | 27.9 | 42.2 | 31.6 |
| COC(CNC(=O)C(C)NC(=O)C(C)NC(=O)c1ccccc1)OC (stereo not given) |  | > 100 |  | > 100 | > 100 | > 100 | > 100 | > 100 | > 100 | > 100 | > 100 | > 100 | > 100 |
| CC(=O)CN=C(C)NNc1ccc([N+](=O)[O-])cc1[N+](=O)[O-] | > 100 | > 100 | > 100 | > 100 |  | > 100 | > 100 | > 100 | > 100 | > 100 | > 100 | > 100 | > 100 |
| CC1C(c2ccccc2O)c2cc3c(cc2OC1N1CCCC1)OCO3 (stereo not given) | 60.7 |  | 49.8 | > 100 | 69.3 | 46.8 |  | > 100 | 31.8 | > 100 | > 100 | 32.4 | > 100 |
| CC(=O)Oc1ccc(-c2cc3ccccc3oc2=O)cc1OC(C)=O | > 100 | > 100 | > 100 |  |  | > 100 | > 100 | > 100 |  | > 100 | > 100 | > 100 | > 100 |
| Cn1ncc2c(NCCc3ccccc3)nc(Cl)nc21 | 45.5 | 57.7 | 81.3 | 45.1 | 58.4 | 56.5 | 59.9 |  | > 100 | > 100 | > 100 | 31.1 | 23.3 |
| CC(C)CCNC(=O)c1ccc(CNC(=O)/C=C/c2ccc(-c3ccccc3[N+](=O)[O-])o2)cc1 |  | 55.3 | 60.8 | > 100 |  | > 100 | > 100 | > 100 | > 100 | > 100 | > 100 | > 100 |  |
| O=[N+]([O-])c1cc(Cl)ccc1S(=O)(=O)c1ccccc1 | > 100 | > 100 | > 100 | > 100 | > 100 |  | > 100 | > 100 | > 100 | > 100 | > 100 | > 100 | > 100 |
| O=[N+]([O-])C(=C1Nc2ccccc2N1)C(Cl)=C(Cl)Cl | > 100 | > 100 | > 100 | > 100 | > 100 | > 100 |  | 76 | > 100 | > 100 | > 100 | > 100 | > 100 |
| OC[C@H]1CC(c2nn[nH]n2)[C@H](O)[C@@H]1O (stereo not given in full) | > 100 | > 100 | > 100 |  | > 100 | > 100 | > 100 | > 100 | > 100 | > 100 | > 100 | > 100 |  |
| N#Cc1c(N2CCOCC2)ncn(-c2ccccc2)c1=O | > 100 |  | > 100 | > 100 | > 100 | > 100 | > 100 | > 100 |  | > 100 | > 100 | > 100 | > 100 |
| O=C1c2c(Br)sc(Br)c2[C@H]2NC(=S)O[C@@H]12 | 47.2 | 31.9 | 34.9 | 29.2 | 33.8 | 30.6 | 45.8 |  | 27.9 | 26.7 | 16.6 | 38.3 | 39.5 |
